Reference: US4783462A, “3(2H)pyridazinone, and anti-allergic agent containing it” (Nissan Chemical Industries Ltd., priority 1985, dated 1988)

Experiments:
ddY strain male mice = assay: Acute toxicity test, Test method-(2), intraperitoneal; type: in vivo; conditions: 7 days
Method: The lethal ratio was determined in ddY strain male mice (4 weeks old) at 7 days after the intraperitoneal injection of test compounds.

LTC4 = assay: Antagonism in isolated guinea-pig trachea, Test method (i) (Table 3, given as LTC4 antagonism); type: cell-based; conditions: Cavia porcellus, 5 min, test compound 10^-5 g/ml, given as LTC4 antagonisms
Method: (i) LTC4 and LTD4 antagonisms in guinea-pig trachea
Antagonisms for LTC4 and LTD4 were determined in isolated guinea-pig trachea prepared as spiral strip. Tracheal preparations were suspended under 1 g tension in 10 ml organ baths and they were incubated for 1 hr prior to use. Contractile responses to LTC4 (2×10^-8 g/ml) and LTD4 (2×10^-8 g/ml) were obtained after the maximal response to histamine (10^-4 M). Test compounds dissolved in 100% dimethyl sulfoxide were added to the organ baths (final concentration of 10^-5 g/ml or 10^-6 g/ml) 5 min prior to LTC4 and LTD4 addition, and then contractile responses to LTC4 and LTD4 were compared with those of control which was obtained from a paired trachea in the absence of test compounds. LTC4 - and LTD4 -induced contractions were expressed as a percentage of the maximal response to histamine. The antagonism was determined as follows:
(§1) Antagonism (%)=(1.0-% contraction in test/% contraction in […]

LTD4 = LTD4 antagonism in isolated guinea-pig trachea with indomethacin, Test method (ii) (Table 4); type: cell-based; conditions: Cavia porcellus, 0.5 h, LTD4 2×10^-8 g/ml, test compound 10^-6 g/ml, 30 min prior, 5 μmol indomethacin
Method: (ii) LTD4 antagonism in guinea-pig trachea
Antagonism for LTD4 was determined in isolated guinea-pig trachea prepared as spiral strip. Tracheal preparations were suspended under 1 g tension in 10 ml organ baths containing 5 μmol of indomethacin and they were incuated for 1 hr prior to use. Contractile responses to LTD4 (2×10^-8 g/ml) were obtained after the maximal response to histamine (10^-4 M). Test compounds dissolved in 100% dimethyl sulfoxide were added to the organ baths (final concentration of 10^-6 g/ml) 30 min prior to LTD4 addition, and then contractile responses to LTD4 were compared with those of control which was obtained from a paired trachea in the absence of test compounds. LTD4 -induced contractions were expressed as a percentage of the maximal response to histamine. The antagonism was determined as follows:
as §1

CCCc1cc(C#N)ccc1OCCCNc1cnn(C(C)(C)C)c(=O)c1Cl [Compound No. 1, 4-Chloro-5-[3-(2-n-propyl-4-cyanophenoxy)propylamino]-2-t-butyl-3(2H)pyridazinone]
Lethal ratio (Death number/Experimental number) (ddY strain male mice; 200 mg/kg intraperitoneal): 0/2
Lethal ratio (Death number/Experimental number) (ddY strain male mice; 400 mg/kg intraperitoneal): 0/1
inhibition at 10 µg/mL (LTC4): 49%

CCOC(=O)c1ccc(OCCCNc2cnn(CC)c(=O)c2Cl)c(Cl)c1 [Compound No. 10]
Lethal ratio (Death number/Experimental number) (ddY strain male mice; 200 mg/kg intraperitoneal): 0/2
Lethal ratio (Death number/Experimental number) (ddY strain male mice; 400 mg/kg intraperitoneal): 0/1
inhibition at 10 µg/mL (LTC4): 46%

COc1cccc(SCCCNc2cnn(C(C)(C)C)c(=O)c2Cl)c1 [Compound No. 14]
Lethal ratio (Death number/Experimental number) (ddY strain male mice; 200 mg/kg intraperitoneal): 0/2
Lethal ratio (Death number/Experimental number) (ddY strain male mice; 400 mg/kg intraperitoneal): 0/1
inhibition at 10 µg/mL (LTC4): 40%

CCCc1cc(C(N)=O)ccc1OCCCNc1cnn(C(C)C)c(=O)c1Br [Compound No. 122]
inhibition at 1 µg/mL (LTD4): 94%

CCCCc1cc(C(=O)OC)ccc1OCCCNc1cnn(C(C)C)c(=O)c1Br [Compound No. 126]
inhibition at 1 µg/mL (LTD4): 90%

CCCc1cc(C#N)ccc1OCC(O)CNc1cnn(C(C)C)c(=O)c1Cl (centres unmarked) [Compound No. 145, 4-chloro-5-[3-(2-n-propyl-4-cyanophenoxy)-2-hydroxypropylamino]-2-i-propyl-3(2H)pyridazinone]
Lethal ratio (Death number/Experimental number) (ddY strain male mice; 200 mg/kg intraperitoneal): 0/2
Lethal ratio (Death number/Experimental number) (ddY strain male mice; 400 mg/kg intraperitoneal): 0/1
inhibition at 10 µg/mL (LTC4): 85%

CCCCc1cc(C(N)=O)ccc1OCCCNc1cnn(CC)c(=O)c1Br [Compound No. 180, 4-bromo-5-[3-(2-n-butyl-4-carbamoylphenoxy)propylamino]-2-ethyl-3(2H) pyridazinone]
inhibition at 1 µg/mL (LTD4): 88%

CCCCc1cc(C#N)ccc1OCCCNc1cnn(CC)c(=O)c1Br [Compound No. 181, 4-Bromo-5-[3-(2-n-butyl-4-cyanophenoxy)propylamino]-2-ethyl-3(2H)pyridazinone]
inhibition at 1 µg/mL (LTD4): 70%

CCn1ncc(NCCCOc2ccc(C(=O)OC)cc2Cl)c(Cl)c1=O [compound 13]
Lethal ratio (Death number/Experimental number) (ddY strain male mice; 200 mg/kg intraperitoneal): 0/2
Lethal ratio (Death number/Experimental number) (ddY strain male mice; 400 mg/kg intraperitoneal): 0/1
inhibition at 10 µg/mL (LTC4): 53%

CCCc1c(OCCCOc2cnn(CC)c(=O)c2Cl)ccc2c(=O)cc(C(=O)O)oc12 [compound 29]
Lethal ratio (Death number/Experimental number) (ddY strain male mice; 200 mg/kg intraperitoneal): 0/2
Lethal ratio (Death number/Experimental number) (ddY strain male mice; 400 mg/kg intraperitoneal): 0/1
inhibition at 10 µg/mL (LTC4): 18%

COc1cccc(OCCCOc2cnn(C(C)C)c(=O)c2Cl)c1 [compound 35]
Lethal ratio (Death number/Experimental number) (ddY strain male mice; 200 mg/kg intraperitoneal): 0/2
Lethal ratio (Death number/Experimental number) (ddY strain male mice; 400 mg/kg intraperitoneal): 0/1
inhibition at 10 µg/mL (LTC4): 72%

COc1cccc(OCCOc2cnn(C(C)C)c(=O)c2Cl)c1 [compound 45]
Lethal ratio (Death number/Experimental number) (ddY strain male mice; 200 mg/kg intraperitoneal): 0/2
Lethal ratio (Death number/Experimental number) (ddY strain male mice; 400 mg/kg intraperitoneal): 0/1
inhibition at 10 µg/mL (LTC4): 27%

CCCc1cc(C(=O)O)ccc1OCCCOc1cnn(C(C)C)c(=O)c1Cl [compound 86]
inhibition at 10 µg/mL (LTC4): 59%

CCCc1cc(C#N)ccc1OCCCOc1cnn(C(C)C)c(=O)c1Cl [compound 87]
inhibition at 10 µg/mL (LTC4): 60%

COC(=O)c1ccc(OCCCNc2cnn(C(C)C)c(=O)c2Cl)c(C(C)C)c1 [compound 88]
inhibition at 10 µg/mL (LTC4): 97%

CC(C)c1cc(C(=O)O)ccc1OCCCNc1cnn(C(C)C)c(=O)c1Cl [compound 89]
inhibition at 10 µg/mL (LTC4): 52%

CCOc1cc(C(=O)OC)ccc1OCCCNc1cnn(C(C)C)c(=O)c1Cl [compound 90]
inhibition at 10 µg/mL (LTC4): 83%

CCOc1cc(C(=O)O)ccc1OCCCNc1cnn(C(C)C)c(=O)c1Cl [compound 91]
inhibition at 10 µg/mL (LTC4): 14%

CCc1cc(C=CC(=O)O)ccc1OCCCNc1cnn(C(C)C)c(=O)c1Cl [compound 95]
inhibition at 10 µg/mL (LTC4): 59%

CCc1cc(C(=O)OC)ccc1OCCCNc1cnn(CC)c(=O)c1Cl [compound 96]
inhibition at 10 µg/mL (LTC4): 77%

CCc1cc(C(=O)O)ccc1OCCCNc1cnn(C(C)C)c(=O)c1Cl [compound 97]
inhibition at 10 µg/mL (LTC4): 62%

CCn1ncc(NCCCOc2ccc(C)cc2OC)c(Cl)c1=O [compound 99]
inhibition at 10 µg/mL (LTC4): 51%

COc1cc(C)ccc1OCCCNc1cnn(C(C)C)c(=O)c1Cl [compound 100]
inhibition at 10 µg/mL (LTC4): 66%

CCn1ncc(NCCCOc2ccc(C(=O)O)cc2C(C)C)c(Cl)c1=O [compound 104]
inhibition at 10 µg/mL (LTC4): 57%

CCc1cc(OC)ccc1OCCCNc1cnn(CC)c(=O)c1Cl [compound 106]
inhibition at 10 µg/mL (LTC4): 93%

CCc1cc(OC)ccc1OCCCNc1cnn(C(C)C)c(=O)c1Cl [compound 107]
inhibition at 10 µg/mL (LTC4): 85%

CCCCc1cc(C(=O)OC)ccc1OCCCNc1cnn(C(C)C)c(=O)c1Cl [compound 110]
inhibition at 10 µg/mL (LTC4): 77%

CCCc1cc(C(=O)O)ccc1OCCCNc1cnn(CC)c(=O)c1Br [compound 119]
inhibition at 10 µg/mL (LTC4): 100%

CCCc1cc(C(=O)OC)ccc1OCCCNc1cnn(C(C)C)c(=O)c1Br [compound 124]
inhibition at 1 µg/mL (LTD4): 92%

CCCc1cc(C(=O)O)ccc1OCCCNc1cnn(C(C)C)c(=O)c1Br [compound 125]
inhibition at 1 µg/mL (LTD4): 84%

CCCc1cc(OC)ccc1OCCCNc1cnn(CC)c(=O)c1Br [compound 135]
inhibition at 1 µg/mL (LTD4): 57%

CCc1cc(OC)ccc1OCCCNc1cnn(CC)c(=O)c1Br [compound 137]
inhibition at 1 µg/mL (LTD4): 53%

COc1cccc(OCC(O)COc2cnn(C(C)C)c(=O)c2Cl)c1 (centres unmarked) [compound 140]
inhibition at 10 µg/mL (LTC4): 41%

CCOc1ccccc1OCC(O)COc1cnn(C(C)C)c(=O)c1Cl (centres unmarked) [compound 141]
inhibition at 10 µg/mL (LTC4): 54%

CC(C)c1ccccc1OCC(O)COc1cnn(C(C)C)c(=O)c1Cl (centres unmarked) [compound 142]
Lethal ratio (Death number/Experimental number) (ddY strain male mice; 200 mg/kg intraperitoneal): 0/2
Lethal ratio (Death number/Experimental number) (ddY strain male mice; 400 mg/kg intraperitoneal): 0/1
inhibition at 10 µg/mL (LTC4): 69%

CCCc1ccccc1OCC(O)CNc1cnn(C(C)C)c(=O)c1Cl (centres unmarked) [compound 144]
inhibition at 10 µg/mL (LTC4): 84%

CCCc1cc(C(=O)O)ccc1OCC(O)CNc1cnn(C(C)C)c(=O)c1Cl (centres unmarked) [compound 146]
inhibition at 10 µg/mL (LTC4): 14%

CCCc1cc(C(=O)OC)ccc1OCC(O)CNc1cnn(C(C)C)c(=O)c1Cl (centres unmarked) [compound 147]
inhibition at 10 µg/mL (LTC4): 66%

CCCc1cc(C(N)=O)ccc1OCC(O)CNc1cnn(C(C)C)c(=O)c1Cl (centres unmarked) [compound 148]
inhibition at 10 µg/mL (LTC4): 17%

CCCc1cc(C#N)ccc1OCC(=O)CNc1cnn(C(C)C)c(=O)c1Cl [compound 149]
inhibition at 10 µg/mL (LTC4): 81%

CCn1ncc(NCC(O)COS(=O)(=O)c2ccc(C)cc2)c(Cl)c1=O (centres unmarked) [compound 150]
inhibition at 10 µg/mL (LTC4): 16%

CC(C)n1ncc(NCC(O)COc2ccccc2Cl)c(Cl)c1=O (centres unmarked) [compound 151]
inhibition at 10 µg/mL (LTC4): 47%

CCCc1cc(OC)ccc1OCC(O)CNc1cnn(CC)c(=O)c1Cl (centres unmarked) [compound 152]
inhibition at 10 µg/mL (LTC4): 60%

CCCc1cc(C(=O)OC)ccc1SCC(=O)CNc1cnn(C(C)C)c(=O)c1Cl [compound 156]
inhibition at 10 µg/mL (LTC4): 56%

CCn1ncc(NCC(O)COc2ccccc2Cl)c(Cl)c1=O (centres unmarked) [compound 159]
inhibition at 10 µg/mL (LTC4): 44%

CCCc1cc(OC)ccc1OCC(O)CNc1cnn(C(C)C)c(=O)c1Cl (centres unmarked) [compound 160]
inhibition at 10 µg/mL (LTC4): 70%

CCCc1cc(C(=O)O)ccc1OCC(CN(C)c1cnn(C(C)C)c(=O)c1Cl)OC (centres unmarked) [compound 165]
inhibition at 10 µg/mL (LTC4): 33%

COC(COc1ccc(C(=O)C(C)CC(=O)O)cc1)CN(C)c1cnn(C(C)C)c(=O)c1Cl (centres unmarked) [compound 168]
inhibition at 10 µg/mL (LTC4): 21%

CC(C)c1ccccc1OCC(O)COc1cnn(C(C)C)c(=O)c1 (centres unmarked) [compound 169]
inhibition at 10 µg/mL (LTC4): 50%

COc1ccc(NCC(O)COc2cnn(C(C)C)c(=O)c2Cl)cc1OC (centres unmarked) [compound 170]
inhibition at 10 µg/mL (LTC4): 17%

CCCc1cc(C#N)ccc1OCC(=O)COc1cnn(C(C)C)c(=O)c1Cl [compound 173]
inhibition at 10 µg/mL (LTC4): 35%

CCCc1cc(C(=O)OC)ccc1OCC(O)COc1cnn(C(C)C)c(=O)c1Cl (centres unmarked) [compound 174]
inhibition at 10 µg/mL (LTC4): 78%

CCCc1cc(C(=O)OC)ccc1OCC(COc1cnn(C(C)C)c(=O)c1Cl)OC (centres unmarked) [compound 175]
inhibition at 10 µg/mL (LTC4): 55%

CCCCc1cc(C(=O)OC)ccc1OCCCNc1cnn(CC)c(=O)c1Br [compound 178]
inhibition at 1 µg/mL (LTD4): 69%

CCCCc1cc(C(=O)O)ccc1OCCCNc1cnn(CC)c(=O)c1Br [compound 179]
inhibition at 1 µg/mL (LTD4): 63%

CCCc1cc(O)ccc1OCCCNc1cnn(CC)c(=O)c1Br [compound 197]
inhibition at 1 µg/mL (LTD4): 82%

CCCc1cc(O)ccc1OCCCNc1cnn(C(C)C)c(=O)c1Br [compound 198]
inhibition at 1 µg/mL (LTD4): 86%

CCc1cc(C=O)ccc1OCCCNc1cnn(CC)c(=O)c1Br [compound 199]
inhibition at 1 µg/mL (LTD4): 65%

CCc1cc(C=O)ccc1OCCCNc1cnn(C(C)C)c(=O)c1Br [compound 200]
inhibition at 1 µg/mL (LTD4): 81%

CCCCCc1cc(C(=O)O)ccc1OCCCNc1cnn(CC)c(=O)c1Cl [compound 202]
inhibition at 1 µg/mL (LTD4): 89%

CCCCCc1cc(C(N)=O)ccc1OCCCNc1cnn(CC)c(=O)c1Cl [compound 203]
inhibition at 1 µg/mL (LTD4): 94%

CCCCCc1cc(C(=O)OC)ccc1OCCCNc1cnn(CC)c(=O)c1Br [compound 204]
inhibition at 1 µg/mL (LTD4): 95%
